According to patent publication US20240409880A1, “METHODS FOR INCREASING ALGAE PRODUCTIVITY USING HIGH SILICA CONCENTRATIONS” (Global Algae Technology, LLC, priority 2023, published 2024):

Test system: Nitzschia inconspicua
Assay: Cultivation of Nitzschia inconspicua in an open raceway pond at high silica loading, lipid content of harvested slurry
Type: cell-based
Protocol: Nitzschia inconspicua was cultivated at pH 9.6 with a silica loading of 10-11 mM in an open raceway pond for 20 days. Silica was added to the culture at a concentration of 1-3 mM each day to maintain the 10-11 mM silica loading as the algae grew and the batch volume increased. The silica loading was reduced to below 5 mM by diluting the culture without adding silica. The third day after reducing the silica loading, the loading was 2 mM. The algae slurry was harvested on the third day and analyzed for lipid content. The lipid content was 47% of the ash-free dry weight of the biomass. This is a substantial increase in lipid content compared to the typical 5-10% lipid content when the algae is grown in standard media with silica concentrations below 500 μM.

## O=[Si]=O [silica]
Algae grown in standard media with silica concentrations below 500 μM
  typical lipid content: 5-10%
pH 9.6, silica loading 10-11 mM for 20 days, then reduced to below 5 mM, loading 2 mM at harvest on the third day
  lipid content: 47 % of the ash-free dry weight of the biomass
